Results: patent EP0185020B1, “NI[…] PREPARATION THEREOF AND UTILIZATION THEREOF IN ANTICANCEROUS CHEMIOTHERAPY” (CENTRE NATIONAL DE LA RECHERCHE SCIENTIFIQUE (CNRS), priority 1984, dated 1985)

Legend:
[1] = Acute lethal dose 50% (DL50 aiguë), i.p.; assay type: in vivo, souris B6D2F1/OLA; settings: for DL 50: i.p., mortality before day 8 in animals treated on day 1, 11520 min
Text: (§1) Des souris B6D2F1/OLA, mâles, sont inoculées avec 10^5 cellules de la souche leucémique L1210 par voie intrapéritonéale au jour 0 et divisées en groupes. Le premier est le groupe témoin et les autres sont traités avec les drogues à différentes concentrations au jour 1,5 et 9. Les composés sont injectés en suspension dans l'huile d'olive. La mortalité des animaux est observée et l'autopsie indique si elle est due à la leucémie ou à l'action toxique des produits.
(§2) La dose létale 50% (DL50 aiguë) est déterminée en tenant compte de la mortalité survenue avant le huitième jour chez les animaux traités au jour J: 1. La médiane de survie des animaux traités (mT) et des animaux témoin (mC) a été établie et le test statistique non paramétrique de Wilcoxon a été utilisé. Les résultats sont considérés positifs si l'indice I (I = ^mT x 100) est supérieur à 125 et le test mC significatif à p ≼ 0,05. La valeur ∞ indique que 50% ou plus des animaux sont survivants au jour +60.

souche leucémique L1210 = assay: Antitumour activity on L1210 leukaemia inoculated i.p. in mice (ICIG, Example 11); assay type: in vivo, souris B6D2F1/OLA; settings: for indices I: dose not given; for survie à 60 jours: à différentes doses
Text: L'activité oncostatique de ces dérivés nitrosés a été déterminée à l'ICIG de Villejuif (Service du Pr. Mathe), en suivant un protocole expérimental décrit: M. Hayat et Coll., Cancer Chemother. Phar- macol., 1979, 3,217-221, R. Maral et Coll., Eur. J. Med. Chem., soumis pour publication.
as §1, §2
Plus l'intervalle des doses à efficacité maximale, ayant donc I = ∞, est important, plus le produit est doué d'une activité intéressante sur la leucémie L1210.

SMILES	DL 50 [1] [mg/kg]	I = T/c × 100 (souche leucémique L1210; 0,8 mg/kg i.p., jours 1,5,9)	I = T/c × 100 (souche leucémique L1210; 0,32 mg/kg i.p., jours 1,5,9)	I = T/c × 100 (souche leucémique L1210; 2 mg/kg i.p., jours 1,5,9)	% de survivants à 60 jours (souche leucémique L1210; 5 mg/kg i.p., jours 1,5,9) [%]	I = T/c × 100 (souche leucémique L1210; 5 mg/kg i.p., jours 1,5,9)	% de survivants à 60 jours (souche leucémique L1210; 10 mg/kg i.p., jours 1,5,9) [%]	I = T/c × 100 (souche leucémique L1210; 10 mg/kg i.p., jours 1,5,9)	% de survivants à 60 jours (souche leucémique L1210; 12,5 mg/kg i.p., jours 1,5,9) [%]	I = T/c × 100 (souche leucémique L1210; 12,5 mg/kg i.p., jours 1,5,9)	indices I (souche leucémique L1210)	survie à 60 jours (souche leucémique L1210) [%]	I = T/c × 100 (souche leucémique L1210; 15 mg/kg i.p., jours 1,5,9)	other results
O=NN(CCCl)C(=O)NCCS [(1) ICIG 2016, N-[N-(chloro-2 éthyl) N-nitrosocarbamoyl] cystéamine]	19	162	265	188	100	∞ (La valeur ∞ indique que 50% ou plus des animaux sont survivants au jour +60)	100	∞ (La valeur ∞ indique que 50% ou plus des animaux sont survivants au jour +60)	100	∞ (La valeur ∞ indique que 50% ou plus des animaux sont survivants au jour +60)	infini	100		% de survivants à 60 jours (souche leucémique L1210; 15 mg/kg i.p., jour + 1): 100%; I = T/c × 100 (souche leucémique L1210; 15 mg/kg i.p., jour + 1): ∞ (La valeur ∞ indique que 50% ou plus des animaux sont survivants au jour +60)
CSCCNC(=O)N(CCCl)N=O [(3) ICIG 2017, S-méthyl N-[N-(chloro-2 éthyl)N-nitrosocarbamoyl] cystéamine]	22	167	133	158	100	∞ (La valeur ∞ indique que 50% ou plus des animaux sont survivants au jour +60)			87	∞ (La valeur ∞ indique que 50% ou plus des animaux sont survivants au jour +60)	infini	100	156	
CC(=O)SCCNC(=O)N(CCCl)N=O [(5) ICIG 2018, S-acétyl N-[N-(chloro-2 éthyl) N-nitrosocarbamoyl] cystéamine]	25				14	217	100	∞ (La valeur ∞ indique que 50% ou plus des animaux sont survivants au jour +60)	80	∞ (La valeur ∞ indique que 50% ou plus des animaux sont survivants au jour +60)	infini	100	490	I = T/c × 100 (souche leucémique L1210; 0,64 mg/kg i.p., jours 1,5,9): 100; I = T/c × 100 (souche leucémique L1210; 4 mg/kg i.p., jours 1,5,9): 158; % de survivants à 60 jours (souche leucémique L1210; 15 mg/kg i.p., jours 1,5,9): 25%; I = T/c × 100 (souche leucémique L1210; 20 mg/kg i.p., jours 1,5,9): 211; I = T/c × 100 (souche leucémique L1210; 1,6 mg/kg i.p., jours 1,5,9): 117
O=NN(CCCl)C(=O)NCCSC(c1ccccc1)(c1ccccc1)c1ccccc1 [(9) ICIG 2069, S-trityl N-[N-(chloro-2 éthyl) N-nitrosocarbamoyl] cystéamine]														toxicité, in words [1]: n'est pas toxique; I = T/c × 100 (souche leucémique L1210; 250 mg/kg i.p., jours 1,5,9, résultats partiels): > 278; I = T/c × 100 (souche leucémique L1210; 625 mg/kg i.p., jours 1,5,9, résultats partiels): > 278
